Measurements taken from patent publication US20240124503A1, “HETEROAROMATIC PHOSPHONIUM SALTS AND THEIR USE TREATING CANCER” (FLORATEK PHARMA S.A., priority 2021, published 2024).

Assays:
Format in all cases: cell-based
U-251 = experiment: Cell viability assay, U-251; conditions: Homo sapiens; brain carcinoma cell line U-251
Protocol: (§1) Antitumor activity of the compounds and doxorubicin as a positive control was assessed by using the CellTiter-Blue Cell Viability Assay (Promega, #G8082) or CellTiter-Glow® Luminescent Cell Viability assay (Promega #G7572) according to the manufacturer's instructions. The compounds were tested at 5 or 6 concentrations in half-log increments (highest concentration 30 μM or 100 μM) in duplicate or triplicate well conditions.
(§2) Tumor cells were grown at 37° C. in a humidified atmosphere with 5% CO2 in RPMI 1640 or DMEM medium, supplemented with 10% (v/v) fetal calf serum and 50 μg/ml gentamicin for up to 20 passages, and were passaged once or twice weekly. Cells were harvested using TrypLE or PBS buffer containing 1 mM EDTA, and the percentage of viable cells was determined using a CASY Model TI cell counter (OMNI Life Science). Cells were harvested from exponential phase cultures, counted and plated in 96 well flat-bottom microtiter plates at a cell density depending on the cell line's growth rate (4,000-20,000 cells/well depending on the cell line's growth rate, up to 60,000 for hematological cancer cell lines) in RPMI 1640 or DMEM medium supplemented with 10% (v/v) fetal calf serum and 50 μg/ml gentamicin (140 μl/well). […] Viability of cells was quantified by the CellTiter-Blue® cell viability assay (Promega G8081) or CellTiter-Glow® Luminescent Cell Viability assay (Promega #G7572). […]

SH-SY-5Y = experiment: Cell viability assay, SH-SY-5Y; conditions: Homo sapiens, SH-SY5Y; brain carcinoma cell line SH-SY-5Y
Protocol: as §1, §2

U-118 = experiment: Cell viability assay, U-118; conditions: brain carcinoma cell line U-118
Protocol: as §1, §2

T47D = experiment: Cell viability assay, T47D; conditions: Homo sapiens; breast carcinoma cell line T47D
Protocol: as §1, §2

NCI-H460 = experiment: Cell viability assay, NCI-H460; conditions: Homo sapiens; lung carcinoma cell line NCI-H460
Protocol: as §1, §2

brain cancer cell = experiment: Cell viability, brain cancer cells (panel statement); conditions: text summary of Tables 3A-3C; read-out: IC50, brain cancer cell growth
Protocol: as §1, §2

lung PDX = experiment: Cell viability, lung PDX (panel statement); conditions: text summary of Table 15; read-out: IC50, lung PDX growth
Protocol: PDX-derived cell cultures were obtained from tumors explanted from mice and isolated by mechanical and enzymatic dissociation. […] Cells were harvested and seeded in 96-wells plates at a density of 1.25 to 5×10^3 cells/well for cytotoxicity assays. Cells were incubated 48 h at 37° C. prior to addition of test molecules and vehicle (DMSO, 0.1%) at desired final concentrations. Cell viability was assessed before drugs' addition (To) and 5 days after test molecules addition by measuring ATP cell content using CellTiter-Glo® Luminescent Cell Viability Assay (Promega) according to the manufacturer's instructions. Luciferase activity was measured on a luminometer (PerkinElmer® EnVision™). Each concentration of compounds was tested in triplicate.
Viability was calculated as a percentage of ATP value compared to vehicle treated controls.
For PDX primary cell cultures, the tumour tissue was washed with PBS containing antibiotic-antimycotic and non-tumour tissue and necrotic tumour tissues were separated. The tumour tissue was transferred to a new dish and cut into 1˜2 mm^3 fragments, resuspended in RPMI-1640 medium and centrifuged at 1,200 rpm for 6 min at room temperature. The pelleted material was resuspended with 15 mL of Tumour Cell Digestion Solution and incubated at 37° C. for 1 hour with agitation. […]

pancreatic cancer cell = experiment: Cell viability, pancreatic cancer cells (panel statement); conditions: text summary of Tables 18A and 18B, read-out: IC50, pancreatic cancer cell growth
Protocol: as §1, §2

IC50 (U-251): 7.54 µM | IC50 (SH-SY-5Y): 2.6 µM | IC50 (T47D): 1.3 µM | IC50 (NCI-H460): 8.63 µM | IC50 (brain cancer cell): < 20 µM | IC50 (pancreatic cancer cell): < 20 µM
SMILES: COc1c(O)ccc2c(=O)c(O)c(-c3ccc(CCCC[P+](c4ccccc4)(c4ccccc4)c4ccccc4)cc3)oc12 [SND190, (4-(4-(3,7-Dihydroxy-8-methoxy-4-oxo-4H1-chromen-2-yl)phenyl)butyl)triphenylphosphonium bromide]
IC50 (U-118): 9.4 µM | IC50 (lung PDX): < 20 µM
